Assay results reported in PMC3602417 (MedChemComm, 2013).
Where two headings read alike, the source gives them in different places.

How the values were obtained:
METH-evoked DA release = settings: cited from earlier work
nAChRs = settings: cited from earlier work
rats [1] = settings: cited from earlier work
rats [2] = settings: cited from earlier work; remark: listed apart in the source
water solubility = type: physicochemical
rats [3] = settings: cited from earlier work; remark: listed apart in the source
VMAT2 [4] = molecular target: T1, VMAT2 (Rattus norvegicus, UniProt Q01827); settings: cited from earlier work
VMAT2 [5] = molecular target: T1, VMAT2; settings: read-out: [3H]DTBZ Ki ± SEM; Table 1; rat synaptic vesicle membranes; ref 12b; cited from earlier work
VMAT2 [6] = molecular target: T1, VMAT2; test: inhibition of [3H]DA uptake into rat striatal synaptic vesicles; type: biochemical
VMAT2 [7] = molecular target: T1, VMAT2; test: [3H]DTBZ binding to rat synaptic vesicle membranes
rats [8] = test: METH self-administration; type: in vivo, rat; settings: preliminary data
[9] = cited from earlier work
rats [10] = settings: cited from earlier work; remark: listed apart in the source

T1 sequence (Q01827 whole entry): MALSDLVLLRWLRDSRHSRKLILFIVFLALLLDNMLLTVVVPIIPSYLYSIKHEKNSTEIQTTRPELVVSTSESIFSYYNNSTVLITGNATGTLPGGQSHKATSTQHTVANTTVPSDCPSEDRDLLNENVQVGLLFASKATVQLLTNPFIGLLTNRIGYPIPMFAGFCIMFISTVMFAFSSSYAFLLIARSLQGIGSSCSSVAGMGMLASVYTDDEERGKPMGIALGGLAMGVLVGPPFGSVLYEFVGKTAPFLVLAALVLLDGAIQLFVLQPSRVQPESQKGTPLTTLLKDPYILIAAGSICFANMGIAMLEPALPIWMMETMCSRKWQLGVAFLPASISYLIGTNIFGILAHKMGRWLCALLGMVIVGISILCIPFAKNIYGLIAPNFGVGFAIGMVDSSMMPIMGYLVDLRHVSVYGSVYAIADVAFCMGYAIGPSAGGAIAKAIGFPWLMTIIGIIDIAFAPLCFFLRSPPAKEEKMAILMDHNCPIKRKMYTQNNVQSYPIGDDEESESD

SMILES: CN1[C@@H](CC(=O)c2ccccc2)CCC[C@H]1C[C@H](O)c1ccccc1 [Compound 1, (−)-lobeline]
- effect on METH-evoked DA release (METH-evoked DA release; rat striatal slices): inhibits METH-evoked DA release from rat striatal slices
- affinity at nAChR α4β2* subtype (nAChRs; α4β2* subtype): high affinity
- effect on METH-induced behavioral effects (rats [1]): attenuates METH-induced behavioral effects

SMILES: CN1[C@@H](CCc2ccccc2)CCC[C@H]1CCc1ccccc1 [Compound 2, lobelane, reference compound]
- effect on METH self-administration (SA) (rats [2]; rats): dose-dependently decreases METH self-administration
- activity at nAChRs (nAChRs; compared to lobeline): negligible activity
- water solubility (water solubility): low water solubility
- effect on food-maintained responding (rats [3]): without altering food-maintained responding

SMILES: c1ccc(CC[C@H]2CCC[C@@H](CCc3ccccc3)N2)cc1 [Compound 3, nor-lobelane]
- potency for VMAT2 binding and inhibition relative to lobelane (VMAT2 [4]): equal potency to lobelane

SMILES: CCN1[C@@H](CCc2ccccc2)CCC[C@H]1CCc1ccccc1 [Compound 4]
- Ki (VMAT2 [5]): 3410 ± 670 nM

SMILES: CCCN1[C@@H](CCc2ccccc2)CCC[C@H]1CCc1ccccc1 [Compound 5]
- Ki (VMAT2 [5]): 1870 ± 250 nM

SMILES: N#CCN1[C@@H](CCc2ccccc2)CCC[C@H]1CCc1ccccc1 [Compound 8]
- fold lower potency in inhibiting [3H]DA uptake at VMAT2 compared to lobelane (VMAT2 [6]; relative to lobelane): 100 fold

SMILES: CN(C)N1[C@@H](CCc2ccccc2)CCC[C@H]1CCc1ccccc1 [Compound 13]
- potency inhibiting [3H]DA uptake at VMAT2 relative to lobelane (VMAT2 [6]): equipotent to lobelane
- affinity at the [3H]DTBZ binding site (VMAT2 [7]): no affinity

SMILES: OC[C@H](O)CN1[C@@H](CCc2ccccc2)CCC[C@H]1CCc1ccccc1 [Compound 14a]
- effect on METH SA, preliminary in vivo screens (rats [8]): decrease in METH SA in rats

SMILES: COc1ccc(CC[C@H]2CCC[C@@H](CCc3ccc(OC)cc3)N2C[C@@H](O)CO)cc1 [Compound 19a]
- CPP produced by the compound (abuse liability) [9]: does not produce CPP
- self-administration of the compound (abuse liability) [9]: not self-administered
- effect on METH CPP (rats [10]): effectively decreases
- duration of action to inhibit METH SA within a behavioral session (rats [2]; compared to lobeline and lobelane): significantly increased duration of action
- effect on METH SA (rats [2]; rats): effectively decreases
- tolerance to decrease of METH SA and CPP after repeated dosing (rats [2]; repeated dosing): not observed
- effect on METH-evoked DA release (METH-evoked DA release; vesicles and striatal slices): decreasing METH-evoked DA release from vesicles and striatal slices without intrinsic activity
- effect on food-maintained responding (rats [3]): without altering food-maintained responding
